Laboratory results published in ChEMBL document CHEMBL4130423, “Synthesis, in vitro β-glucuronidase inhibitory potential and molecular docking studies of quinolines” (Eur J Med Chem, 2017).

What follows are compounds tested against T1, Beta-glucuronidase (Bos taurus) (UniProt A3KMY8) (assay: Potency index, ratio of saccharic acid 1,4-lactone IC50 to test compound IC50 for bovine liver beta-glucuronidase).
T1 sequence (whole entry): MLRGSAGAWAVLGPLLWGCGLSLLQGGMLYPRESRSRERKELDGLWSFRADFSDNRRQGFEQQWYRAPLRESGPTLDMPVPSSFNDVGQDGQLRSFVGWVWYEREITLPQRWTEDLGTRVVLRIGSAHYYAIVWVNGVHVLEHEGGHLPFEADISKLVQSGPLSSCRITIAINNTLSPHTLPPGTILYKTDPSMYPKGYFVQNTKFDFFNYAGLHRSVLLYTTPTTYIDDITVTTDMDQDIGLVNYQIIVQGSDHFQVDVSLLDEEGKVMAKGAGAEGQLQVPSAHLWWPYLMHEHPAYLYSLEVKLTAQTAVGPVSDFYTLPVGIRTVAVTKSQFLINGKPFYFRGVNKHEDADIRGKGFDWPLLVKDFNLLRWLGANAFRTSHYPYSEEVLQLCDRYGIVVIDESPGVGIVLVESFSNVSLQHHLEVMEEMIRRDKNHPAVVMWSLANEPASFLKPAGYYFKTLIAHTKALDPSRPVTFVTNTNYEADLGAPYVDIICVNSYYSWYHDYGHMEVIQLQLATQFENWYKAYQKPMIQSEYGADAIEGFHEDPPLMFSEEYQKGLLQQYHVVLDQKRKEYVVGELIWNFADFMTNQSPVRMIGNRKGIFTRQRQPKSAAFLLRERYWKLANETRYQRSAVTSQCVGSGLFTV

| Ratio IC50 | SMILES |
| --- | --- |
| 24 | O=S(=O)(Nc1cccc2ncccc12)c1ccc(Cl)cc1Cl |
| 6 | O=S(=O)(Nc1cnc2ccccc2c1)c1ccc(Cl)cc1Cl |
| 3 | O=[N+]([O-])c1cccc(S(=O)(=O)Nc2cccc3cccnc23)c1 |
| 3 | O=[N+]([O-])c1ccccc1S(=O)(=O)Nc1cccc2cccnc12 |

Second part, the compound before the results:

| SMILES | Ratio IC50 |
| --- | --- |
| O=S(=O)(Nc1cccc2cccnc12)c1ccc(Cl)cc1Cl | 8 |
| O=S(=O)(Nc1cccc2ncccc12)c1cc(Cl)cc(Cl)c1O | 30 |

These compounds were tested against T2, Beta-glucuronidase (Bos taurus, UniProt A3KMY8) (assay: Inhibition of bovine liver beta-glucuronidase using p-nitrophenyl-beta-D-glucuronide as substrate preincubated for 30 mins followed by substrate addition by spectrophotometric analysis).
T2 sequence (A3KMY8 whole entry): T1 sequence (whole entry)

| IC50 | SMILES |
| --- | --- |
| 30.1 µM | O=[N+]([O-])c1cccc(S(=O)(=O)Oc2cccc3cccnc23)c1 |
| 33.5 to 53.6 µM | COc1ccc(S(=O)(=O)Nc2cnc3ccccc3c2)cc1OC |
| 68.5 µM | COc1ccc(Br)cc1S(=O)(=O)Nc1cccc2cccnc12 |
| 70.5 µM | CCCc1ccc(S(=O)(=O)Nc2cccc3cccnc23)cc1 |
| 2.1 µM | O=S(=O)(Nc1cccc2ncccc12)c1ccc(Cl)cc1Cl |
| 8.4 µM | O=S(=O)(Nc1cnc2ccccc2c1)c1ccc(Cl)cc1Cl |
| 53.4 µM | O=S(=O)(Nc1cnc2ccccc2c1)c1ccccc1 |
| 34.4 µM | Cc1cc(S(=O)(=O)Nc2cnc3ccccc3c2)c(C)cc1Cl |
| 12.2 µM | O=[N+]([O-])c1cccc(S(=O)(=O)Nc2cccc3ncccc23)c1 |
| 23.5 µM | Cc1cc(S(=O)(=O)Nc2cccc3ncccc23)c(C)cc1Cl |
| 16.1 µM | O=[N+]([O-])c1cccc(S(=O)(=O)Nc2cccc3cccnc23)c1 |
| 41.6 µM | Cc1cc(S(=O)(=O)Oc2cccc3cccnc23)c(C)cc1Cl |
| 2.8 µM | COc1ccc(-c2nc3ccccc3c(=O)[nH]2)cc1O |
| 27.2 µM | CCCc1ccc(S(=O)(=O)Nc2cnc3ccccc3c2)cc1 |
| 5.5 µM | O=S(=O)(Nc1cnc2ccccc2c1)c1cc(Cl)ccc1Cl |
| 48.6 µM | CS(=O)(=O)Nc1cccc2cccnc12 |
| 31.3 µM | O=[N+]([O-])c1ccc(S(=O)(=O)Nc2cccc3cccnc23)cc1 |
| 50.2 µM | COc1ccc(Br)cc1S(=O)(=O)Nc1cccc2ncccc12 |
| 33.4 µM | O=S(=O)(Nc1cccc2cccnc12)c1ccc(Cl)cc1 |
| 9.7 µM | O=S(=O)(Oc1cccc2cccnc12)c1ccc(Cl)cc1Cl |
| 18.2 µM | O=[N+]([O-])c1ccccc1S(=O)(=O)Nc1cccc2cccnc12 |
| 42.6 µM | COc1ccc(S(=O)(=O)Nc2cccc3cccnc23)cc1OC |
| 84.4 µM | CCCc1ccc(S(=O)(=O)Oc2cccc3cccnc23)cc1 |

Continued, compound first:

| SMILES | IC50 |
| --- | --- |
| Cc1cc(S(=O)(=O)Nc2cccc3cccnc23)c(C)cc1Cl | 24.5 µM |
| COc1ccc(S(=O)(=O)Nc2cccc3cccnc23)cc1 | 49.2 µM |
| O=S(=O)(Oc1cccc2cccnc12)c1ccccc1 | 49.5 µM |
| O=S(=O)(Nc1cccc2cccnc12)c1ccc(Cl)cc1Cl | 6.1 µM |
| O=[N+]([O-])c1ccccc1S(=O)(=O)Nc1cnc2ccccc2c1 | 8.1 µM |
| O=[N+]([O-])c1ccccc1S(=O)(=O)Oc1cccc2cccnc12 | 6.4 µM |
| COc1ccc(Br)cc1S(=O)(=O)Nc1cnc2ccccc2c1 | 66.5 µM |
| O=S(=O)(Nc1cccc2ncccc12)c1cc(Cl)cc(Cl)c1O | 1.6 µM |
| O=S(=O)(Nc1cccc2cccnc12)c1ccccc1 | 66.4 µM |
| COc1ccc(-c2nc3ccccc3c(=O)[nH]2)cc1 | 1.1 µM |
| O=[N+]([O-])c1ccc(S(=O)(=O)Nc2cnc3ccccc3c2)cc1 | 31.6 µM |
| COc1ccc(Br)cc1S(=O)(=O)Oc1cccc2cccnc12 | 49.5 µM |
| COc1ccc(S(=O)(=O)Nc2cccc3ncccc23)cc1OC | 43.2 µM |
| CCCc1ccc(S(=O)(=O)Nc2cccc3ncccc23)cc1 | 75.1 µM |
| O=S(=O)(Nc1cccc2ncccc12)c1cc(Cl)ccc1Cl | 4.5 µM |
| O=[N+]([O-])c1ccc(S(=O)(=O)Oc2cccc3cccnc23)cc1 | 15.4 µM |
| CCCCCCCCS(=O)(=O)Nc1cnc2ccccc2c1 | 75.1 µM |
| O=[N+]([O-])c1cccc(S(=O)(=O)Nc2cnc3ccccc3c2)c1 | 46.2 µM |
